Tests used:
[1] = In-vivo blood/plasma to lung partition coefficients of the compound, logP(lung) in rat; assay type: ADME, cell-free; settings: octanol/water
[2] = In-vivo serum to lung partition coefficients of the compound, logP(lung) in rat; assay type: ADME; settings: octanol/water
[3] = In-vivo blood to lung partition coefficients of the compound, logP(lung) in rat; assay type: ADME
[4] = In-vitro blood to lung partition coefficients of the compound, logP(lung) (human/rat)
[5] = In-vitro air to blood partition coefficients of the compound, logK(blood) (human/rat); settings: octanol/water
[6] = In-vitro air to lung partition coefficients of the compound, logK(lung) (human/rat); settings: octanol/water

Structure (SMILES) | logP(lung) [3] | logP(lung) [4] | logK(blood) [5] | logK(lung) [6] | also measured
C=CCOc1ccccc1OCC(O)CNC(C)C (configuration not stated) [OXPRENOLOL] |  |  |  |  | logP(lung) [1]: 1.27
COC(=O)Nc1nc2cc(C(=O)N3CCN(c4ccccn4)CC3)ccc2[nH]1 |  |  |  |  | logP(lung) [2]: -0.29
Oc1ccc(O)cc1 [HYDROQUINONE] | -0.16 |  |  |  | 
CN(C)CCCN1c2ccccc2Sc2ccc(Cl)cc21 [CHLORPROMAZINE] | 1.81 |  |  |  | 
CC(=O)Nc1ccc(OCC(O)CNC(C)C)cc1 (configuration not stated) [PRACTOLOL] | 0.48 |  |  |  | 
Cc1ncc2n1-c1ccc(Cl)cc1C(c1ccccc1F)=NC2 [MIDAZOLAM] |  |  |  |  | logP(lung) [1]: 0.6
C=CC(=O)O [ACRYLIC ACID] | 0.14 |  |  |  | 
OCCOCCN1CCN(C(c2ccccc2)c2ccc(Cl)cc2)CC1 (configuration not stated) [HYDROXYZINE] | 1.06 |  |  |  | 
O=C1CN=C(c2ccccc2)c2cc([N+](=O)[O-])ccc2N1 [NITRAZEPAM] | 0.26 |  |  |  | 
C=CC=C [BUTADIENE] |  | -0.41 | 0.09 | -0.32 | 
O=C(CCCN1CCC(O)(c2ccc(Cl)cc2)CC1)c1ccc(F)cc1 [HALOPERIDOL] | 1.73 |  |  |  | 
CC(C)=O [ACETONE] |  | -0.16 | 2.36 | 2.2 | 
CN(C)CCCN1c2ccccc2CCc2ccc(Cl)cc21 [CLOMIPRAMINE] | 2.16 |  |  |  | 
FC(F)(F)c1ccc(Cl)cc1 |  | 0.2 | 1.43 | 1.63 | 
[He] [HELIUM] |  | 0.02 | -2 | -1.98 | 
CCCCCCC [HEPTANE] |  | -0.1 | 0.5 | 0.4 | 
CCc1cc2c(s1)N(C)C(=O)CN=C2c1ccccc1Cl [CLOTIAZEPAM] | 1.04 |  |  |  | 
[N-]=[N+]=O [NITROUS OXIDE] |  | 0 | -0.34 | -0.37 | 

Structure (SMILES) | logP(lung) [3] | logP(lung) [4] | logK(blood) [5] | logK(lung) [6] | also measured
CC[C@H]1OC(=O)[C@H](C)[C@@H](O[C@H]2C[C@@](C)(OC)[C@@H](O)[C@H](C)O2)[C@H](C)[C@@H](O[C@@H]2O[C@H](C)C[C@H](N(C)C)[C@H]2O)[C@](C)(O)C[C@@H](C)CN(C)[C@H](C)[C@@H](O)[C@]1(C)O [AZITHROMYCIN] |  |  |  |  | logP(lung) [2]: 2.08
O=O [OXYGEN] |  | -0.04 | -1.58 | -1.62 | 
CCCCCC [HEXANE] |  | -0.21 | 0.21 | 0 | 
CCC(C)(C)C |  | 0.37 | -0.59 | -0.22 | 
CCOCC [ETHER] |  | 0.03 | 1.11 | 1.14 | 
CCC(C)CC |  | 0.32 | -0.37 | -0.05 | 
COc1ccc(CCCn2ncc3c2nc(N)n2nc(-c4ccco4)nc32)cc1 | 0.62 |  |  |  | 
[C-]#[O+] [CARBON MONOXIDE] |  | -0.02 | -1.67 | -1.69 | 
CCC(C)=O [BUTANONE] |  | -0.23 | 2.24 | 2.01 | 
CCCC(C)C |  | 0.29 | -0.39 | -0.1 | 
COCCc1ccc(OCC(O)CNC(C)C)cc1 (configuration not stated) [METOPROLOL] | 1.06 |  |  |  | 
CC(C)CO [ISOBUTANOL] |  | -0.32 | 2.92 | 2.6 | 
CC[C@H]1OC(=O)[C@H](C)[C@@H](O[C@H]2C[C@@](C)(OC)[C@@H](O)[C@H](C)O2)[C@H](C)[C@@H](O[C@@H]2O[C@H](C)C[C@H](N(C)C)[C@H]2O)[C@](C)(O)C[C@@H](C)C(=O)[C@H](C)[C@@H](O)[C@]1(C)O [ERYTHROMYCIN] |  |  |  |  | logP(lung) [2]: 1.62
CC1CCCC1 [METHYLCYCLOPENTANE] |  | 0.3 | -0.07 | 0.23 | 
CN1CCN(CCCN2c3ccccc3Sc3ccc(C(F)(F)F)cc32)CC1 [TRIFLUOPERAZINE] | 1.33 |  |  |  | 
CCCCC [PENTANE] |  | -0.01 | -0.29 | -0.3 | 
C#C [ETHYNE] |  | 0 | -0.06 | -0.06 | 
OC(CCN1CCCCC1)(c1ccccc1)C1CCCCC1 (configuration not stated) [TRIHEXYPHENIDYL] | 1.87 |  |  |  | 

— ChEMBL document CHEMBL1795228, “Air to lung partition coefficients for volatile organic compounds and blood to lung partition coefficients for volatile organic compounds and drugs” (Eur J Med Chem, 2008)
